Test results: patent publication US20070287180A1, “Linear Dna Fragment For Markerless Deletion, Novel Strain Having Inhibited Formation Of Biofilm And Preparation Method Thereof” (priority 2004, published 2007)

System: E. coli DEB31
Test: Antibiotics susceptibility of biofilm-grown cells, plate counting (modified Whiteley method)
Type: cell-based, Escherichia coli
Settings: for antibiotic concentration at which the number of living E. coli DEB31 equals that of wild-type MG1655 at the standard concentration: 24 h biofilm, then 10 h antibiotic at 30° C., MG1655 standard concentration: ampicillin 50, streptomycin 30, rifampicin 150 μg/ml
Experimental: The antibiotics susceptibility of the variants was measured using the modified technique developed by Whiteley (Whiteley M., Nature, 413, 860, 2001). In other words, 96-well polystyrene plates containing 0.2 ml of LB culture were inoculated with the variants to be incubated for 24 hours to allow biofilm formation. Each well was added with various concentrations of antibiotics ranging from 0.25 μg to 64 μg and were incubated for 10 hours. The number of living cells was measured by plate counting method.
After incubating the variants in 96-well plates containing 200 μl of LB medium for 24 hours, the serial diluted antibiotics was added to each well at the following concentration ranges: ampicillin, from 0 to 128 μg/ml; streptomycin, from 0 to 64 μg/ml; and rifampicin, from 0 to 256 μg/ml. The cells were incubated for additional 10 hours at 30° C. after antibiotics addition. Then, the number of the living E. coli variants was counted using the standard plate counting method.

SMILES	antibiotic concentration at which the number of living E. coli DEB31 equals that of wild-type MG1655 at the standard concentration	increase of antibiotics susceptibility versus wild-type MG1655 (DEB31 / biofilm-deficient variants vs MG1655)
[H]/N=C(/N)N[C@H]1[C@H](O)[C@@H](O)[C@H](O[C@@H]2O[C@@H](C)[C@](O)(C=O)[C@H]2O[C@@H]2O[C@@H](CO)[C@H](O)[C@@H](O)[C@@H]2NC)[C@@H](N/C(N)=N\[H])[C@@H]1O [streptomycin]	8 µg/mL	
CO[C@H]1/C=C/O[C@@]2(C)Oc3c(C)c(O)c4c(O)c(c(/C=N/N5CCN(C)CC5)c(O)c4c3C2=O)NC(=O)/C(C)=C\C=C\[C@H](C)[C@H](O)[C@@H](C)[C@@H](O)[C@@H](C)[C@H](OC(C)=O)[C@@H]1C [rifampicin]	32 µg/mL	about 5 fold
CC1(C)S[C@@H]2[C@H](NC(=O)[C@H](N)c3ccccc3)C(=O)N2[C@H]1C(=O)O [ampicillin]	2 µg/mL	
